Source: paper PMC8392721 (Journal of medicinal chemistry, 2021)

How the values were obtained:
SpNatC [1] = molecular target: SpNatC (Schizosaccharomyces pombe, UniProt O74311); conditions: at 10 μM; n = 3
SpNatC [2] = conditions: from no inhibition at 10 μM
hNatD [3] = molecular target: T1, hNatD (Homo sapiens, UniProt Q86UY6); conditions: radioactive assay; acetyl versus propionyl linker, tripeptide SGR
PCAF = PCAF (Homo sapiens, UniProt Q92831)
hMOF = molecular target: T2, hMOF (Homo sapiens, UniProt Q9H7Z6); assay: Selectivity assay, hMOF; assay type: biochemical
T2 sequence (Q9H7Z6 1-458): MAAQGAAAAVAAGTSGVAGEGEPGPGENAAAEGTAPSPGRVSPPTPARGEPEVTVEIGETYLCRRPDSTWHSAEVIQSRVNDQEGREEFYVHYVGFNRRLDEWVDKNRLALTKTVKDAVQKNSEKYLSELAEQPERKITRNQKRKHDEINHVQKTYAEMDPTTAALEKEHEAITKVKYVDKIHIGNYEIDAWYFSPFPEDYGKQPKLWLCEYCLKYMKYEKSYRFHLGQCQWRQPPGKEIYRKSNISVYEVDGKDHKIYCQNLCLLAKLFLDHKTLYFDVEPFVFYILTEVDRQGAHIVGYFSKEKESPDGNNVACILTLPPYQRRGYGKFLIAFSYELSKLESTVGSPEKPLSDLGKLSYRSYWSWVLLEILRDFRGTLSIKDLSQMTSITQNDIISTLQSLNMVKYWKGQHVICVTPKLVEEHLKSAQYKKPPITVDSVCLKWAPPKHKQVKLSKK

hNatB = hNatB (Homo sapiens, UniProt P61599)
Chain of hNatB (P61599 1-163 limits assumed): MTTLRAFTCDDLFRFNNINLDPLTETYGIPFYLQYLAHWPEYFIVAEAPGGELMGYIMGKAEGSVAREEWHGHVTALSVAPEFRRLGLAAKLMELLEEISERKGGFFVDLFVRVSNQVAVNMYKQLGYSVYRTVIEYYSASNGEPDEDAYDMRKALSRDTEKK
Chain of hNatB (Q14CX7 whole entry partner): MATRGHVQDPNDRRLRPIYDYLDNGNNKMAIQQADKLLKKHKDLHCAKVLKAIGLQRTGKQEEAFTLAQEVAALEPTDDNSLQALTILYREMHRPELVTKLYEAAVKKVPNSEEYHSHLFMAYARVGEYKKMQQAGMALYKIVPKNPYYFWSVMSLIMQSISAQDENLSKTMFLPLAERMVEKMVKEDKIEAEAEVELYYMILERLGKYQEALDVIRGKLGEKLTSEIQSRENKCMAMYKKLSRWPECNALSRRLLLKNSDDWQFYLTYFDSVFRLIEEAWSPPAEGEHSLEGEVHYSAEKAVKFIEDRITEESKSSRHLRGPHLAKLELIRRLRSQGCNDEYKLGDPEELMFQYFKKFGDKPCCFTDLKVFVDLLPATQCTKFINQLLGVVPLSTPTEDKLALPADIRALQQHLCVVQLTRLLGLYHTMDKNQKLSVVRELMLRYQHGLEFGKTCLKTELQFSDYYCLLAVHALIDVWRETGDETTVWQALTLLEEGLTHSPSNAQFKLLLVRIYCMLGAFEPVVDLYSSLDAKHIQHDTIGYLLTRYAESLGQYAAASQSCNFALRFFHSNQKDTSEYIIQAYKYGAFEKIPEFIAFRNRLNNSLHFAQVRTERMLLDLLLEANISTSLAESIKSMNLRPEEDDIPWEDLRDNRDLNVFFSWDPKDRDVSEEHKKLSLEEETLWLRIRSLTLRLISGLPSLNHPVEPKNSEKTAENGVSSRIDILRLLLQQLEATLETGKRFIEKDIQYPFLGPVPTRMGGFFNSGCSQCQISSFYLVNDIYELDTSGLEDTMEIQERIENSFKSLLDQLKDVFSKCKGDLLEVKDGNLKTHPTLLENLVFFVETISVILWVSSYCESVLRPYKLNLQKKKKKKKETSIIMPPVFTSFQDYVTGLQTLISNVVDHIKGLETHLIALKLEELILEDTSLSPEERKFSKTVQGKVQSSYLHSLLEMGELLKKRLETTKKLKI

hNatE = hNatE (Homo sapiens, UniProt Q9GZZ1)
Chain of hNatE (Q9GZZ1 whole entry, one chain of several): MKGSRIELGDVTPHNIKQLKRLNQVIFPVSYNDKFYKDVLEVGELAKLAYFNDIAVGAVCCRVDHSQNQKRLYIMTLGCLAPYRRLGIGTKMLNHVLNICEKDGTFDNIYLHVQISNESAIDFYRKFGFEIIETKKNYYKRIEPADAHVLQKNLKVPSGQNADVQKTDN

NatD = NatD (Homo sapiens, UniProt Q86UY6); assay: biochemical
hNatD [4] = molecular target: T1, hNatD; assay: biochemical
hNatA = molecular target: T3, hNatA (Homo sapiens, UniProt P41227); assay: Selectivity assay, NatA; assay type: biochemical
T3 sequence (P41227 1-160 limits assumed): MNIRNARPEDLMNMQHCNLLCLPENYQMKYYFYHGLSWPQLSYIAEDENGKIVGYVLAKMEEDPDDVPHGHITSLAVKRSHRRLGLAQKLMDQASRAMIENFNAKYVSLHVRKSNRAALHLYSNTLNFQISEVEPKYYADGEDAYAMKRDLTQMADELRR
T3 sequence (Q9BXJ9 1-866 partner): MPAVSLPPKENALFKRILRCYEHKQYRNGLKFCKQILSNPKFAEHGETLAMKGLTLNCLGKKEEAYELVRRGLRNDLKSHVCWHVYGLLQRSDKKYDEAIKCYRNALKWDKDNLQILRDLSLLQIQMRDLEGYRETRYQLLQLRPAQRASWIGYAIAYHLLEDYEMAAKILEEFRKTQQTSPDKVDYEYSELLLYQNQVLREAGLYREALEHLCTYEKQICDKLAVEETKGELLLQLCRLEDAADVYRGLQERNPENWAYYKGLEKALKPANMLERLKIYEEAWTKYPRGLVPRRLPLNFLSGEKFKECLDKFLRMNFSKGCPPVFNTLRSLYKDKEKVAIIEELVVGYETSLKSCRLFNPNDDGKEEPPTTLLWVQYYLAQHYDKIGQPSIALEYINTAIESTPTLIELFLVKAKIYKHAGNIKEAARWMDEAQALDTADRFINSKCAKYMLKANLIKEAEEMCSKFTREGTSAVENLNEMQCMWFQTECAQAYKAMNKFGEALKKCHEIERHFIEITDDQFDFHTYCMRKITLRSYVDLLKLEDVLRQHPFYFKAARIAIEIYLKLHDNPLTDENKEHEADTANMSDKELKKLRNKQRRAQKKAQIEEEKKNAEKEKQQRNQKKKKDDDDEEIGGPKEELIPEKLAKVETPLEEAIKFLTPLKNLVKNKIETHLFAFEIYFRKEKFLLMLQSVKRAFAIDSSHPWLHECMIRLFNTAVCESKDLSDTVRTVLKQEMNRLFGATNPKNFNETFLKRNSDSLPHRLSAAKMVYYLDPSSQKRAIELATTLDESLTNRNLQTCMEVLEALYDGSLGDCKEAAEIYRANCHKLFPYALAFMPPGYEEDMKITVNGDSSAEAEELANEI

Chain of PCAF (Q92831 whole entry): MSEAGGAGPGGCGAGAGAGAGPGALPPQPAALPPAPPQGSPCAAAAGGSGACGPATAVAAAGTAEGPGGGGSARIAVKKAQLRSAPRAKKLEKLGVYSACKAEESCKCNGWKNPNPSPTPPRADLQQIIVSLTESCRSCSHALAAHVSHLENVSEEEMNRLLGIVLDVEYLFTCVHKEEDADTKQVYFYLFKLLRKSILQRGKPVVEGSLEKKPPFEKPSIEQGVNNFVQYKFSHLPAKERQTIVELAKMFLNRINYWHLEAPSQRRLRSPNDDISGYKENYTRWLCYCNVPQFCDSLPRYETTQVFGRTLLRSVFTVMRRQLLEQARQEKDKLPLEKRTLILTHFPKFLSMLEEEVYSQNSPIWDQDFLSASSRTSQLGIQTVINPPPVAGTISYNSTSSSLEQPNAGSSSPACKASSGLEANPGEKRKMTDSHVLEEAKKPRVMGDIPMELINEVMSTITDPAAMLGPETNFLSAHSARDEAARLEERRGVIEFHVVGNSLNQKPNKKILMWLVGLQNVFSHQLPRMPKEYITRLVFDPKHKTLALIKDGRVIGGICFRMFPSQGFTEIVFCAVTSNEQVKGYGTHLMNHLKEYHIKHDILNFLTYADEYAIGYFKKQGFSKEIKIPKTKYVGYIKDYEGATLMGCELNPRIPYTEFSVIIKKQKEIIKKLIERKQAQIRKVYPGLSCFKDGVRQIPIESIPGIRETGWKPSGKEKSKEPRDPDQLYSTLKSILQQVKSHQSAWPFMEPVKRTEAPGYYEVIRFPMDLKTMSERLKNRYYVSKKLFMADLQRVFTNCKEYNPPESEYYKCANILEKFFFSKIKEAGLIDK
Chain of SpNatC (Schizosaccharomyces pombe, UniProt O74311) (O74311 whole entry): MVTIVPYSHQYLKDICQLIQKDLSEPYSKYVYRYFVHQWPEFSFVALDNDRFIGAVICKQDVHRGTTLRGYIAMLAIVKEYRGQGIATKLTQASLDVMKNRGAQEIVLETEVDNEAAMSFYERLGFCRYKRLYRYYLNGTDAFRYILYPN

In the case of `CC(C)(COP(=O)(O)OP(=O)(O)OC[C@H]1O[C@@H](n2cnc3c(N)ncnc32)[C@H](O)[C@@H]1OP(=O)(O)O)[C@@H](O)C(=O)NCCC(=O)NCCSCC(=O)N[C@@H](CO)C(=O)NCC(=O)N[C@@H](CCCNC(=N)N)C(N)=O` [Compound 7, CoA-C2-SGR], the “inhibition towards NatC” value (SpNatC [1]) is reported as “did not show any inhibition”, the “selectivity for NatD over NatC” value (SpNatC [2]) is reported as “over 10,000 fold” and the “fold more potent than 8” value (hNatD [3]) is reported as 2 fold. The “inhibition towards PCAF” value (PCAF; at 10 μM, n = 3) was “did not show any inhibition”, the “selectivity for NatD over PCAF” value (PCAF; from no inhibition at 10 μM) was “over 10,000 fold” and the IC50 (hMOF) was > 100 nM. For the same compound, the “inhibition towards NatB” value (hNatB; at 10 μM, n = 3) was “did not show any inhibition”, the “selectivity for NatD over NatB” value (hNatB; from no inhibition at 10 μM) was “over 10,000 fold” and the “inhibition towards NatE” value (hNatE; at 10 μM, n = 3) was “did not show any inhibition”. The “selectivity for NatD over NatE” value (hNatE; from no inhibition at 10 μM) was “over 10,000 fold”, the IC50 (NatD) was 29 ± 5.6 nM and the IC50 (hNatD [4]) was 16 ± 4.9 nM. For the same compound, the IC50 (hNatA) was > 100 nM.
